{
  "source": "patent US6699494B2",
  "about": "“Pharmaceutical composition and method for treating premature labor” (Columbia Laboratories, Inc., priority 1997, dated 2004)",
  "key": {"[1]": {"conditions": "terbutaline inhaler, dysmenorrhea; cited from earlier work"}, "[2]": {"test": "Single dose pharmacokinetic study of transvaginal terbutaline gel, serum terbutaline by GC-MS", "type": "in vivo, human", "procedure": "The objective of this study was to assess the pharmacokinetic parameters of the terbutaline and polycarbophil composition following a single dose regimen comparing progressively increasing concentrations. This open-label study was conducted in ten healthy female volunteers with a mean age of 25±SD (Standard Deviation) of 3.93 years. This study consisted of a 30 day screening period and a 24 hour treatment period with a follow-up evaluation conducted two days after administration of the final dose. The drug was administered transvaginally at 9:00 a.m. A wash out period of at least one week as observed between each of the four doses of the drug. All subjects were given an estro-progestative pill, to ensure that all study participants were at the same point in their menstrual cycle. They began dosing on day 7 to 10 of their pill intake for the single dose study. Serum terbutaline concentrations were obtained from blood samples collected predosing on the mornings of treatment, at frequent intervals during the initial 24 hours post dose (0.5, 1, 1.5, 2, 4, 6, 8, 12, 24 hours) and at 48 hours post dose. Serum terbutaline concentrations were determined using gas chromatography-mass spectrometry. Pharmacokinetic parameters were computed using concentration-time data for each subject following intake of the last dose of investigational drug on the morning of study day 6. The following pharmacokinetic parameters were computed: area under the drug concentration-time curve from time 0 to time t (AUC0-t), where t is the time of the last measurable concentration; peak drug concentration (Cmax); time to peak drug concentration (tmax); steady state drug concentration (CSS); and, elimination half-life (t½).\nAll ten subjects completed the study for the 0.1%, 0.2%, and 0.4% (w/w) concentrations. For each dose, the onset of serum terbutaline concentrations occurred within 1 to 2 hours. (See FIG. 1 and Table 2 showing terbutaline concentrations for each tested dose). […] Concentrations were still detectable for up to 48 hours (mean±SEM (Standard Error of the Mean) of 113.11±32.25 pg/mL for the 0.4% concentration).\n(§1) Both the single and multiple dose studies discussed in the preceding examples also evaluated the 0.8% w/w concentration. The average age±SD for the single and multiple dose studies at the 0.8 dose were 26±3.42 and 26±4.12, respectively. The pharmacokinetic parameters from the study follow in Tables 4 and 5."}, "[3]": {"test": "Human ex vivo uterine perfusion model, vagina to uterus transfer of tritiated terbutaline", "type": "in vitro ADME", "procedure": "This model verifies the preferential direct delivery of terbutaline from the vagina to the uterus. In this study, uteri obtained from women undergoing hysterectomies for benign diseases were immediately connected to an organ perfusion system in which temperature, CO2 concentration, uterine artery pressure and flow were maintained constant. A perfusion model was opened without recirculation. The direct transfer of terbutaline from the vagina to the uterus was analyzed by applying a mixture of tritiated [^3H] terbutaline and unlabeled terbutaline to the cuff of vaginal tissue remaining attached to the cervix after the hysterectomy. Tritiated terbutaline was only used for autoradiography analysis of sections of uterine tissue. The experiments were interrupted at predetermined time intervals after vaginal applications […]. At the end of the perfusion period, ^3H and ^14C radioactivity was measured in endometrial and myometrial samples. Tritiated water and ^14C dextran helped to determine that the extend of non-specific vagina to uterus transport (due to leaks of the system) was less than 10%. The myometrial extraction of terbutaline and its corresponding venous outflow during the 12 hour uterine perfusions are shown in FIG. 3 below. The ^3H terbutaline started to be recovered in the venous effluent uterine during the first 3 hours. Terbutaline flow was maximal at the 6th-9th hour and then decreased for up to 48 hours of perfusion. Terbutaline flow in the venous effluent uterine is the reflection of terbutaline exiting from the organ. Accumulation of tritiated terbutaline was maximal in the myometrium at 12 hours of perfusion. (Mean±SD of 18.40±3.40 ng/100 mg of tissue) and decreased slowly. Significant accumulation of ^3H terbutaline still remained at 48 hours of perfusion, with 20% of the original concentration present."}, "[4]": {"conditions": "cited from earlier work"}, "[5]": {"conditions": "oral administration, cited from earlier work"}, "[6]": {"test": "Side effects at the 0.8% dose in the single and multiple dose studies", "type": "in vivo, human", "conditions": "transvaginal gel", "from_the_text": "as §1\nA number of patients in the study (40%), however, experienced side effects such as tachycardia at this dose. […] This dose can be a method of practicing the invention, but is certainly not the most preferred embodiment."}, "[7]": {"conditions": "female, human, 0.1 % (w/w), 0.1% gel, serum, mean ± SEM, n=10"}, "[8]": {"conditions": "female, human, 0.2 % (w/w), 0.2% gel, serum, mean ± SEM, n=10"}, "[9]": {"conditions": "female, human, 0.4 % (w/w), 0.4% gel, serum, mean ± SEM, n=10"}, "[10]": {"conditions": "female, human, 0.8 % w/w, 0.8% gel, serum, mean ± SEM, n=8"}, "[11]": {"conditions": "ex vivo perfused uterus, vaginal application"}},
  "note": "Where two headings read alike, the source gives them in different places.",
  "data": [
    {"smiles": "CC(C)(C)NCC(O)c1cc(O)cc(O)c1", "note": "(stereo not shown) [Terbutaline, 5-[2-[(1,1-dimethylethyl)amino]-1-hydroxyethyl]-1,3-benzenediol]", "values": [
      {"measurement": "duration of the effect of each spray", "setting": "[1]", "result": "≥ 1", "unit": "h"},
      {"measurement": "time for which serum concentrations were still detectable", "setting": "[2]", "result": "up to 48 hours"},
      {"measurement": "Css", "setting": "[2]; 0.1% gel, serum, mean ± SEM, n=10", "result": "0.056 ± 0.041", "unit": "ng/mL"},
      {"measurement": "Css", "setting": "[2]; 0.2% gel, serum, mean ± SEM, n=10", "result": "0.191 ± 0.108", "unit": "ng/mL"},
      {"measurement": "Css", "setting": "[2]; 0.8% gel, serum, mean ± SEM, n=8", "result": "0.579 ± 0.3", "unit": "ng/mL"},
      {"measurement": "Cmax", "setting": "[2]; [7]", "result": "0.117 ± 0.059", "unit": "ng/mL"},
      {"measurement": "Tmax", "setting": "[2]; [7]", "result": "13 ± 6", "unit": "h"},
      {"measurement": "AUC(0-t)", "setting": "[2]; female, human, 0.1 % (w/w), 0.1% gel, serum, mean ± SEM, n=10, read-out: AUC0 to 48", "result": "2.28 ± 1.84", "unit": "ng·h/mL"},
      {"measurement": "half-life", "setting": "[2]; female, human, 0.1 % (w/w), 0.1% gel, serum, mean ± SEM, n=10, read-out: t½ (converted)", "result": "18 ± 12", "unit": "h"},
      {"measurement": "Cmax", "setting": "[2]; [8]", "result": "0.297 ± 0.17", "unit": "ng/mL"},
      {"measurement": "Tmax", "setting": "[2]; [8]", "result": "13 ± 6", "unit": "h"},
      {"measurement": "AUC(0-t)", "setting": "[2]; female, human, 0.2 % (w/w), 0.2% gel, serum, mean ± SEM, n=10, read-out: AUC0 to 48", "result": "8.01 ± 4.7", "unit": "ng·h/mL"},
      {"measurement": "half-life", "setting": "[2]; female, human, 0.2 % (w/w), 0.2% gel, serum, mean ± SEM, n=10, read-out: t½ (converted)", "result": "29 ± 15", "unit": "h"},
      {"measurement": "Cmax", "setting": "[2]; [9]", "result": "0.479 ± 0.149", "unit": "ng/mL"},
      {"measurement": "Tmax", "setting": "[2]; [9]", "result": "14 ± 7", "unit": "h"},
      {"measurement": "AUC(0-t)", "setting": "[2]; female, human, 0.4 % (w/w), 0.4% gel, serum, mean ± SEM, n=10, read-out: AUC0 to 48", "result": "11.9 ± 5.28", "unit": "ng·h/mL"},
      {"measurement": "half-life", "setting": "[2]; female, human, 0.4 % (w/w), 0.4% gel, serum, mean ± SEM, n=10, read-out: t½ (converted)", "result": "24 ± 16", "unit": "h"},
      {"measurement": "AUC(0-t)", "setting": "[2]; female, human, 0.8 % w/w gel, 0.8% gel, serum, mean ± SEM, n=8, read-out: AUC0 to 48", "result": "23.2 ± 13.5", "unit": "ng·h/mL"},
      {"measurement": "Cmax", "setting": "[2]; [10]", "result": "0.787 ± 0.434", "unit": "ng/mL"},
      {"measurement": "Tmax", "setting": "[2]; [10]", "result": "10 ± 3", "unit": "h"},
      {"measurement": "half-life", "setting": "[2]; female, human, 0.8 % w/w, 0.8% gel, serum, mean ± SEM, n=8, read-out: t½ (converted)", "result": "20 ± 7", "unit": "h"},
      {"measurement": "half-life", "setting": "[2]; female, human, serum, according to the dose administered (0.1%-0.4%), read-out: Mean t½ estimates", "result": "18 to 29", "unit": "h"},
      {"measurement": "concentration at 48 h", "setting": "[2]; female, human, serum, other: transvaginal, 0.4 % (w/w), 0.4% concentration, mean±SEM", "result": "0.113 ± 0.0323", "unit": "ng/mL"},
      {"measurement": "onset of serum terbutaline concentrations", "setting": "[2]; for each dose (0.1%, 0.2%, 0.4%)", "result": "1 to 2", "unit": "h"},
      {"measurement": "time terbutaline lasted in the myometrium", "setting": "[3]; after a single vaginal application", "result": "over 48 hours"},
      {"measurement": "accumulation of tritiated terbutaline in the myometrium", "setting": "[3]; at 12 hours of perfusion, Mean±SD", "result": "18.40±3.40 ng/100 mg of tissue"},
      {"measurement": "3H terbutaline remaining, share of the original concentration", "setting": "[3]; at 48 hours of perfusion", "result": 20, "unit": "%"},
      {"measurement": "time of maximal accumulation of tritiated terbutaline in the myometrium", "setting": "[3]; [11]", "result": 12, "unit": "h"},
      {"measurement": "time within which 3H terbutaline started to be recovered in the venous effluent", "setting": "[3]; [11]", "result": "≤ 3", "unit": "h"},
      {"measurement": "known serum levels for toxicity", "setting": "[4]; prior art", "result": 3000, "unit": "pg/mL"},
      {"measurement": "known serum threshold susceptible to trigger systemic adverse events such as tachycardia and tremor", "setting": "[4]; reported in prior art", "result": "3,000-3,500 pg/mL"},
      {"measurement": "Bioavailability", "setting": "[5]; extensive first-pass sulphation", "result": "15 and 20%"},
      {"measurement": "further decrease of bioavailability by concomitant food intake", "setting": "[5]", "result": 30, "unit": "%"},
      {"measurement": "patients who experienced side effects such as tachycardia", "setting": "[6]", "result": 40, "unit": "%"}
    ]}
  ]
}
